# From patent publication US11827627B2, “N-(hydroxyalkyl (hetero)aryl) tetrahydrofuran carboxamides as modulators of sodium channels” (VERTEX PHARMACEUTICALS INCORPORATED, priority 2021, dated 2023)
# Molecular target: human NaV 1.8 (Homo sapiens, UniProt Q9Y5Y9)
# Experiment: E-VIPR assay detecting and measuring NaV inhibition properties
# Format: cell-based
# Conditions: HEK cells expressing a truncated form of human NaV 1.8; electrical stimulation, membrane potential FRET dyes
# Text: E-VIPR Assay Detecting and Measuring NaV Inhibition Properties
# Sodium ion channels are voltage-dependent proteins that can be activated by inducing membrane voltage changes by applying electric fields. The electrical stimulation instrument and methods of use, referred to as E-VIPR, are described in International Publication No. WO 2002/008748 A3 and C.-J. Huang et al. Characterization of voltage-gated sodium channel blockers by electrical stimulation and fluorescence detection of membrane potential, 24 Nature Biotech. 439-46 (2006), both of which are incorporated by reference in their entirety. The instrument comprises a microtiter plate handler, an optical system for exciting the coumarin dye while simultaneously recording the coumarin and oxonol emissions, a waveform generator, a current- or voltage-controlled amplifier, and parallel electrode pairs that are inserted into assay plate wells. Under integrated computer control, this instrument passes user-programmed electrical stimulus protocols to cells within the wells of the microtiter plate.
# 16-20 hours prior to running the assay on E-VIPR, HEK cells expressing a truncated form of human NaV 1.8 with full channel activity were seeded into microtiter 384-well plates, pre-coated with matrigel, at a density of 25,000 cells per well. 2.5-5% KIR2.1 Bacmam virus was added to the final cell suspension before seeding into cell plates. HEK cells were grown in Dulbecco's Modified Eagle's Medium (DMEM) supplemented with 10% FBS (Fetal Bovine Serum, qualified; Sigma #F4135), 1% NEAA (Non-Essential Amino Acids, Gibco #11140), 1% HEPES (Gibco #15630), 1% Pen-Strep (Penicillin-Streptomycin; Gibco #15140) and 5 μg/ml Blasticidin (Gibco #R210-01). Cells were expanded in vented cap cell culture flasks, with 90-95% humidity and 5% CO2.
# Reagents and Stock Solutions:
# 100 mg/mL Pluronic F-127 (Sigma #P2443), in dry DMSO
# Compound Plates: Corning 384-well Polypropylene Round Bottom #3656
# Cell Plates: 384-well tissue culture treated plates (Greiner #781091-2B)
# 2.5-5% KIR 2.1 Bacmam virus (produced in-house), prepared as described in Section 3.3 of J. A. Fornwald et al., Gene Expression in Mammalian Cells Using BacMam, a Modified Baculovirus System, 1350 Methods in Molecular Biology 95-116 (2016), the entire contents of which are incorporated by reference. The concentration used can be dependent on viral titer of each batch.
# 5 mM DiSBAC6(3), a voltage sensitive oxonol acceptor (CAS number 169211-44-3; 5-[3-(1,3-dihexylhexahydro-4,6-dioxo-2-thioxo-5-pyrimidinyl)-2-propen-1-ylidene]-1,3-dihexyldihydro-2-thioxo-4,6(1H,5H)-pyrimidinedione), in dry DMSO. The preparation of DiSBAC6(3) is analogous to that of DiSBAC4(3) as described in Voltage Sensing by Fluorescence Resonance Energy Transfer in Single Cells, Gonzalez, J. E. and Tsien, R. Y. (1995) Biophys. J. 69, 1272-1280.
# 5 mM CC2-DMPE, a commercially available membrane-bound coumarin phospholipid FRET donor (ThermoFisher Scientific catalog number K1017, CAS number 393782-57-5; tetradecanoic acid, 1,1′-[(1R)-1-[8-(6-chloro-7-hydroxy-2-oxo-2H-1-benzopyran-3-yl)-3-hydroxy-3-oxido-8-oxo-2,4-dioxa-7-aza-3-phosphaoct-1-yl]-1,2-ethanediyl]ester) was prepared in dry DMSO. See also, Improved indicators of cell membrane potential that use fluorescence resonance energy transfer, Gonzalez, J. E. and Tsien, R. Y. (1997) Chem. Biol. 4, 269-277.
# Voltage Assay Background Suppression Compound (VABSC-1) is prepared in H2O (89-363 mM, range used to maintain solubility)
# Human Serum (HS, Millipore #S1P1-01KL, or Sigma SLBR5469V and SLBR5470V as a 50%/50% mixture, for 25% assay final concentration)
# Bath 1 Buffer: • Sodium Chloride 160 mM (9.35 g/L), Potassium Chloride, 4.5 mM (0.335 g/L), Glucose 10 mM (1.8 g/L), Magnesium Chloride (Anhydrous) 1 mM (0.095 g/L), Calcium Chloride 2 mM (0.222 g/L), HEPES 10 mM (2.38 g/L) in water. […]
# Sequence of human NaV 1.8 (Q9Y5Y9 126-1722 limits assumed): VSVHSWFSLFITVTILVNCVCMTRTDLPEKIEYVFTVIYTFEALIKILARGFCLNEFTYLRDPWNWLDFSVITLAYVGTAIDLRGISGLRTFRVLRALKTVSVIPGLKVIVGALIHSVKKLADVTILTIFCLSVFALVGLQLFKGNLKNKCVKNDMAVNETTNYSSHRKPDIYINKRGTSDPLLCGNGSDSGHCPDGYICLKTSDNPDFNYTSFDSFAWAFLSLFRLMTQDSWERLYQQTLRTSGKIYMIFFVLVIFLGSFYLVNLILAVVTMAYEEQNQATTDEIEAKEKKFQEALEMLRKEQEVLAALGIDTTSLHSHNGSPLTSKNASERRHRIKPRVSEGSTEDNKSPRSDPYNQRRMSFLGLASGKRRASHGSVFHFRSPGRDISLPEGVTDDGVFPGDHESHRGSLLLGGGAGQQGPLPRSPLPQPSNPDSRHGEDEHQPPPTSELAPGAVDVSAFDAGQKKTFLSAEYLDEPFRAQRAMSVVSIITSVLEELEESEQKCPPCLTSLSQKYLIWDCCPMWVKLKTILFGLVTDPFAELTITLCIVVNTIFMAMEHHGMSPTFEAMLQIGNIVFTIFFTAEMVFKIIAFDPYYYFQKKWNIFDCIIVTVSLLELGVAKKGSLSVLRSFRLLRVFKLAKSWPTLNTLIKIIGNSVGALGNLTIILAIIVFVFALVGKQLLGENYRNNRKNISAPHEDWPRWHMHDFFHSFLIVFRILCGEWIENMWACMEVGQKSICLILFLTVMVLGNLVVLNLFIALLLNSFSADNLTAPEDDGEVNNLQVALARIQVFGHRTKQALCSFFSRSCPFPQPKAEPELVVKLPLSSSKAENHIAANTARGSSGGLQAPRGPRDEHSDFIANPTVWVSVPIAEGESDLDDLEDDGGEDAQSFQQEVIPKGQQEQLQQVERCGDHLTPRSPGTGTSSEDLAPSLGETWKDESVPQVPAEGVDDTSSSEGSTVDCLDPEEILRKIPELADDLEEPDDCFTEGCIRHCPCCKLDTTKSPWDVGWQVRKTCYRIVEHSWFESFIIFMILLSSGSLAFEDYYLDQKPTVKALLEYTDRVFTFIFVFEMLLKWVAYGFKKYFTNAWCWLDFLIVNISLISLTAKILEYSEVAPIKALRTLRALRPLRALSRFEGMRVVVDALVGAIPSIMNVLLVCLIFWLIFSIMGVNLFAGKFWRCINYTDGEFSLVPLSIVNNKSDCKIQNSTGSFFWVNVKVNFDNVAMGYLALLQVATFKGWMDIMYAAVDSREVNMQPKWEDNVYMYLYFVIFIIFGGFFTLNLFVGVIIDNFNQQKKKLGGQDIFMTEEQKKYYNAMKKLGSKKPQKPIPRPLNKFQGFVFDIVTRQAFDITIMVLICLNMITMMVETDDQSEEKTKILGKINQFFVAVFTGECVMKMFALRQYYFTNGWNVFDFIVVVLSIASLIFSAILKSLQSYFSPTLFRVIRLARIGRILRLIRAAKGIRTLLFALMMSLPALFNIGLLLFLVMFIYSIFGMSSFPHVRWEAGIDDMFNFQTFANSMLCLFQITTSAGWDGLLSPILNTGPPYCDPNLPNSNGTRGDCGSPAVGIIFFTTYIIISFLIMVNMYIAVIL
row,Structure (SMILES),IC50 [µM]
1,"C[C@@]1(C(F)(F)F)C[C@H](c2ccc(OC(F)(F)F)cc2Cl)[C@@H](C(=O)Nc2ccc([C@@H](O)CO)nc2)O1 (single isomer, unassigned) [Compound 61, rel-(2S,3R,5S)-3-(2-chloro-4-(trifluoromethoxy)phenyl)-N-(6-((R*)-1,2-dihydroxyethyl)pyridin-3-yl)-5-methyl-5-(trifluoromethyl)tetrahydrofuran-2-carboxamide]",≥ 1
2,"C[C@]1(C(F)(F)F)C[C@@H](c2ccc(OC(F)(F)F)cc2Cl)[C@H](C(=O)Nc2ccc([C@@H](O)CO)nc2)O1 (single isomer, unassigned) [Compound 62, rel-(2R,3S,5R)-3-(2-chloro-4-(trifluoromethoxy)phenyl)-N-(6-((R*)-1,2-dihydroxyethyl)pyridin-3-yl)-5-methyl-5-(trifluoromethyl)tetrahydrofuran-2-carboxamide]",0.1 to 1
3,"C[C@@]1(C(F)(F)F)C[C@@H](c2ccc(OC(F)(F)F)cc2Cl)[C@H](C(=O)Nc2ccc([C@@H](O)CO)nc2)O1 (single isomer, unassigned) [Compound 63, rel-(2R,3S,5S)-3-(2-chloro-4-(trifluoromethoxy)phenyl)-N-(6-((R*)-1,2-dihydroxyethyl)pyridin-3-yl)-5-methyl-5-(trifluoromethyl)tetrahydrofuran-2-carboxamide]",≥ 1
4,"Cc1c([C@H]2[C@H](C(=O)Nc3ccc([C@@H](O)CO)nc3)O[C@@](C)(C(F)(F)F)[C@H]2C)ccc(F)c1F (single isomer, unassigned) [Compound 66, rel-(2R,3S,4S,5R)-3-(3,4-difluoro-2-methylphenyl)-N-(6-((R*)-1,2-dihydroxyethyl)pyridin-3-yl)-4,5-dimethyl-5-(trifluoromethyl)tetrahydrofuran-2-carboxamide]",0.01 to 0.1
5,"Cc1c([C@@H]2[C@@H](C)[C@@](C)(C(F)(F)F)O[C@H]2C(=O)Nc2ccc([C@@H](O)CO)nc2)ccc(F)c1F (single isomer, unassigned) [Compound 67, rel-(2R,3S,4R,5S)-3-(3,4-difluoro-2-methylphenyl)-N-(6-((R*)-1,2-dihydroxyethyl)pyridin-3-yl)-4,5-dimethyl-5-(trifluoromethyl)tetrahydrofuran-2-carboxamide]",≥ 1
6,"Cc1c([C@@H]2[C@@H](C(=O)Nc3ccc([C@@H](O)CO)nc3)O[C@](C)(C(F)(F)F)[C@@H]2C)ccc(F)c1F (single isomer, unassigned) [Compound 68, rel-(2S,3R,4R,5S)-3-(3,4-difluoro-2-methylphenyl)-N-(6-((R*)-1,2-dihydroxyethyl)pyridin-3-yl)-4,5-dimethyl-5-(trifluoromethyl)tetrahydrofuran-2-carboxamide]",≥ 1
7,"COc1c([C@H]2[C@H](C(=O)Nc3ccc([C@@H](O)CO)nc3)O[C@@](C)(C(F)(F)F)[C@H]2C)cccc1C(F)(F)F (single isomer, unassigned) [Compound 70, rel-(2R,3S,4S,5R)-N-(6-((R*)-1,2-dihydroxyethyl)pyridin-3-yl)-3-(2-methoxy-3-(trifluoromethyl)phenyl)-4,5-dimethyl-5-(trifluoromethyl)tetrahydrofuran-2-carboxamide]",< 0.01
8,"COc1c([C@H]2[C@H](C(=O)Nc3cnc(C(O)CO)nc3)O[C@@](C)(C(F)(F)F)[C@H]2C)cccc1C(F)(F)F (single isomer, unassigned) [Compound 71]",0.1 to 1
9,"COc1c([C@@H]2[C@@H](C(=O)Nc3cnc(C(O)CO)nc3)O[C@](C)(C(F)(F)F)[C@@H]2C)cccc1C(F)(F)F (single isomer, unassigned) [Compound 72]",≥ 1
10,"COc1c([C@H]2[C@H](C(=O)Nc3cnc(C(O)CO)nc3)O[C@@](C)(C(F)(F)F)[C@H]2C)cccc1C(F)(F)F (single isomer, unassigned) [Compound 73]",0.01 to 0.1
11,"Cc1c([C@@H]2[C@@H](C(=O)Nc3ccc(CO)nc3)O[C@@](C)(C(F)(F)F)[C@H]2C)ccc(F)c1F (single isomer, unassigned) [Compound 79]",≥ 1

# Results, then the compound that gave them:
row,IC50 [µM],Structure (SMILES)
1,≥ 1,"C[C@]1(C(F)(F)F)C[C@H](c2ccc(OC(F)(F)F)cc2Cl)[C@@H](C(=O)Nc2ccc([C@@H](O)CO)nc2)O1 (single isomer, unassigned) [Compound 64, rel-(2S,3R,5R)-3-(2-chloro-4-(trifluoromethoxy)phenyl)-N-(6-((R*)-1,2-dihydroxyethyl)pyridin-3-yl)-5-methyl-5-(trifluoromethyl)tetrahydrofuran-2-carboxamide]"
2,≥ 1,"Cc1c([C@@H]2[C@@H](C(=O)Nc3ccc([C@@H](O)CO)nc3)O[C@@](C)(C(F)(F)F)[C@H]2C)ccc(F)c1F (single isomer, unassigned) [Compound 65, rel-(2S,3R,4S,5R)-3-(3,4-difluoro-2-methylphenyl)-N-(6-((R*)-1,2-dihydroxyethyl)pyridin-3-yl)-4,5-dimethyl-5-(trifluoromethyl)tetrahydrofuran-2-carboxamide]"
3,≥ 1,"COc1c([C@@H]2[C@@H](C(=O)Nc3ccc([C@@H](O)CO)nc3)O[C@](C)(C(F)(F)F)[C@@H]2C)cccc1C(F)(F)F (single isomer, unassigned) [Compound 69, rel-(2S,3R,4R,5S)-N-(6-((R*)-1,2-dihydroxyethyl)pyridin-3-yl)-3-(2-methoxy-3-(trifluoromethyl)phenyl)-4,5-dimethyl-5-(trifluoromethyl)tetrahydrofuran-2-carboxamide]"
4,≥ 1,"CCOc1ccc([C@H]2[C@H](C(=O)Nc3ccc([C@@H](O)CO)nc3)O[C@@](C)(C(F)(F)F)[C@H]2C)c2c1OC(F)(F)O2 (single isomer, unassigned) [Compound 75, rel-(2R,3S,4S,5R)-N-(6-((R*)-1,2-dihydroxyethyl)pyridin-3-yl)-3-(7-ethoxy-2,2-difluorobenzo[d][1,3]dioxol-4-yl)-4,5-dimethyl-5-(trifluoromethyl)tetrahydrofuran-2-carboxamide]"
5,≥ 1,"Cc1c([C@@H]2[C@@H](C)[C@@](C)(C(F)(F)F)O[C@H]2C(=O)Nc2ccc(CO)nc2)ccc(F)c1F (single isomer, unassigned) [Compound 77]"
6,≥ 1,"Cc1c([C@@H]2[C@@H](C(=O)Nc3ccc(CO)nc3)O[C@](C)(C(F)(F)F)[C@@H]2C)ccc(F)c1F (single isomer, unassigned) [Compound 78]"
7,< 0.01,"Cc1c([C@H]2[C@H](C(=O)Nc3ccc(CO)nc3)O[C@@](C)(C(F)(F)F)[C@H]2C)ccc(F)c1F (single isomer, unassigned) [Compound 80]"
8,≥ 1,"COc1c(C2C(C(=O)Nc3ccc(CO)nc3)OC(C)(C(F)(F)F)C2C)cccc1C(F)(F)F (single isomer, unassigned) [Compound 81]"
9,< 0.01,"COc1c(C2C(C(=O)Nc3ccc(CO)nc3)OC(C)(C(F)(F)F)C2C)cccc1C(F)(F)F (single isomer, unassigned) [Compound 82]"
10,≥ 1,"COc1c(C2C(C(=O)Nc3ccc(CO)nc3)OC(C)(C(F)(F)F)C2C)ccc(C(F)F)c1F (single isomer, unassigned) [Compound 90]"
11,0.01 to 0.1,"COc1c(C2C(C(=O)Nc3ccc(CO)nc3)OC(C)(C(F)(F)F)C2C)ccc(C(F)F)c1F (single isomer, unassigned) [Compound 91]"
